These results are taken from PubChem BioAssay AID248 (DTP/NCI, 2004).

Structures are written as SMILES. Where “and” joins values, the source holds several entries; their conditions need not be identical. Equal values may be shown once. Inconclusive results and toxic doses are left out.

For the assay, the system named is L1210 leukemia ip in BDF1 mice, survival T/C. Kind of assay: NCI In Vivo Anticancer Drug Screen. Data for tumor model L1210 Leukemia (intraperitoneal) in B6D2F1 (BDF1) mice. The settings on record: endpoint: mean survival time, higher = longer survival. A digest of the protocol:
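Value reflects the ratio of survival in compound-treated mice to survival in vehicle-treated controls, with both groups carrying the same transplanted tumor.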

[1] abbreviates: dose: 100.0 mg/kg/injection, schedule: Q04DX003 (ip), vehicle: Klucel (hydroxypropylcellulose) (HPC).
[2] abbreviates: dose: 200.0 mg/kg/injection, schedule: Q04DX003 (ip), vehicle: Klucel (hydroxypropylcellulose) (HPC).
Setting [3] is: dose: 400.0 mg/kg/injection, schedule: Q04DX003 (ip), vehicle: Klucel (hydroxypropylcellulose) (HPC).
Setting [4] is: dose: 100.0 mg/kg/injection, schedule: Q04DX002 (ip), vehicle: Klucel (hydroxypropylcellulose) (HPC).
[5] abbreviates: dose: 200.0 mg/kg/injection, schedule: Q04DX002 (ip), vehicle: Klucel (hydroxypropylcellulose) (HPC).
The mark [6] stands for this setting: dose: 400.0 mg/kg/injection, schedule: Q04DX002 (ip), vehicle: Klucel (hydroxypropylcellulose) (HPC).
The mark [7] stands for this setting: dose: 100.0 mg/kg/injection, schedule: Q01DX009 (ip), vehicle: Klucel (hydroxypropylcellulose) (HPC).
[8] abbreviates: dose: 200.0 mg/kg/injection, schedule: Q01DX009 (ip), vehicle: Klucel (hydroxypropylcellulose) (HPC).
Where [9] appears, read: dose: 400.0 mg/kg/injection, schedule: Q01DX009 (ip), vehicle: Klucel (hydroxypropylcellulose) (HPC).
Setting [10] is: dose: 100.0 mg/kg/injection, schedule: Q01DX009 (ip), vehicle: saline with Tween-80.
The mark [11] stands for this setting: dose: 200.0 mg/kg/injection, schedule: Q01DX009 (ip), vehicle: saline with Tween-80.
The mark [12] stands for this setting: dose: 400.0 mg/kg/injection, schedule: Q01DX009 (ip), vehicle: saline with Tween-80.

As to `Cc1ccc(S(=O)(=O)N(CC(=O)O)c2cccc(Cl)c2)cc1`, the T/C is 91 % of control under setting [1], 96 % of control under setting [2] and 100 % of control under setting [3].
For `O=c1[nH]cnc2c1ncn2Cc1cccc2ccccc12`, the T/C is, setting by setting: under setting [4], 94 % of control; under setting [5], 94 % of control; under setting [6], 94 % of control.
For `CCOC(=O)CNc1cccc(F)c1C`, the T/C under setting [4] is 104 % of control, the T/C under setting [5] was 104 % of control and the T/C under setting [6] is 115 % of control.
`NC(N)=N/N=C(/c1ccccc1)c1ccc(N)cc1`: the T/C is, setting by setting: (dose: 3.5 mg/kg/injection, schedule: Q01DX Z (oral), vehicle: carboxymethylcellulose (CMC)) 102 % of control; (dose: 75.0 mg/kg/injection, schedule: Q01DX Z (oral), vehicle: carboxymethylcellulose (CMC)) 102 % of control; (dose: 150.0 mg/kg/injection, schedule: Q01DX Z (oral), vehicle: carboxymethylcellulose (CMC)) 98 % of control; (dose: 300.0 mg/kg/injection, schedule: Q01DX Z (oral), vehicle: carboxymethylcellulose (CMC)) 104 % of control.
`COc1cc(Nc2c3ccccc3nc3ccccc23)ccc1NS(C)(=O)=O`: the T/C (dose: 10.0 mg/kg/injection, schedule: Q01DX009 (ip), vehicle: saline with Tween-80) was 154 % of control.
For the compound `CCCCCCCCCCCCSc1nccnc1C`, the T/C (dose: 50.0 mg/kg/injection, schedule: Q01DX009 (ip), vehicle: Klucel (hydroxypropylcellulose) (HPC)) was 113 % of control; the T/C under setting [7] is 106 % of control; the T/C under setting [8] is 92 % of control.
For `CS/C([S-])=N/[NH-].CS/C([S-])=N/[NH-].[Pd]`, the T/C runs as follows: (dose: 3.13 mg/kg/injection, schedule: Q01DX009 (ip), vehicle: saline with Tween-80) 98 % of control; (dose: 6.25 mg/kg/injection, schedule: Q01DX009 (ip), vehicle: saline with Tween-80) 100 % of control; (dose: 12.5 mg/kg/injection, schedule: Q01DX009 (ip), vehicle: saline with Tween-80) 89 % of control.
Regarding `CSc1ccc(OC(=O)Nc2ccccc2[N+](=O)[O-])cc1C`, the T/C under setting [7] is 109 % of control, the T/C under setting [8] was 94 % of control and the T/C under setting [9] was 92 % of control.
Take `COC(=O)/C(=C\c1ccc([N+](=O)[O-])s1)C(C)=O`: the T/C is, setting by setting: (dose: 6.25 mg/kg/injection, schedule: Q01DX005 (ip), vehicle: saline with Tween-80) 92 % of control; (dose: 12.5 mg/kg/injection, schedule: Q01DX005 (ip), vehicle: saline with Tween-80) 94 % of control; (dose: 12.5 mg/kg/injection, schedule: Q04DX003 (ip), vehicle: saline) 94 % of control; (dose: 25.0 mg/kg/injection, schedule: Q04DX003 (ip), vehicle: saline) 96 % of control; (dose: 50.0 mg/kg/injection, schedule: Q04DX003 (ip), vehicle: saline) 86 % of control.
In the case of `CN(C)c1ccc(C=Nc2cccc(O)c2)cc1`, the T/C was 102 % of control (dose: 100.0 mg/kg/injection, schedule: Q01DX001 (ip), vehicle: carboxymethylcellulose (CMC)); 88 % of control (dose: 200.0 mg/kg/injection, schedule: Q01DX001 (ip), vehicle: carboxymethylcellulose (CMC)); 94 % of control (dose: 400.0 mg/kg/injection, schedule: Q01DX001 (ip), vehicle: carboxymethylcellulose (CMC)).
Take `CC1OCCCCO1`: the T/C (dose: 50.0 mg/kg/injection, schedule: Q01DX001 (ip), vehicle: saline) is 106 % of control; the T/C (dose: 100.0 mg/kg/injection, schedule: Q01DX001 (ip), vehicle: saline) was 102 % of control; the T/C (dose: 100.0 mg/kg/injection, schedule: Q01DX009 (ip), vehicle: saline) was 96 % of control and 112 % of control; the T/C (dose: 100.0 mg/kg/injection, schedule: Q04DX002 (ip), vehicle: saline) is 108 % of control and 86 % of control; the T/C (dose: 200.0 mg/kg/injection, schedule: Q01DX001 (ip), vehicle: saline) is 103 % of control; the T/C (dose: 200.0 mg/kg/injection, schedule: Q01DX009 (ip), vehicle: saline) was 102 % of control and 108 % of control. Moreover, the T/C is, setting by setting: (dose: 200.0 mg/kg/injection, schedule: Q04DX002 (ip), vehicle: saline) 93 % of control and 100 % of control; (dose: 400.0 mg/kg/injection, schedule: Q01DX009 (ip), vehicle: saline) 98 % of control and 112 % of control; (dose: 400.0 mg/kg/injection, schedule: Q04DX002 (ip), vehicle: saline) 93 % of control and 95 % of control.
With `COc1ccc(C(O)(c2ccccc2)C(OC(=O)c2cc([N+](=O)[O-])cc([N+](=O)[O-])c2)c2ccccc2)cc1` (stereo unspecified), the T/C runs as follows: under setting [10], 91 % of control; under setting [11], 96 % of control; under setting [12], 95 % of control.
Take `CCOC(=O)c1ccc(N(C=O)CCC(=O)CCl)cc1`: the T/C (dose: 3.0 mg/kg/injection, schedule: Q01DX009 (ip), vehicle: saline) is 104 % of control; the T/C (dose: 5.0 mg/kg/injection, schedule: Q01DX001 (ip), vehicle: saline) was 95 % of control; the T/C (dose: 6.0 mg/kg/injection, schedule: Q01DX009 (ip), vehicle: saline) was 100 % of control; the T/C (dose: 10.0 mg/kg/injection, schedule: Q01DX001 (ip), vehicle: saline) was 102 % of control; the T/C (dose: 12.0 mg/kg/injection, schedule: Q01DX009 (ip), vehicle: saline) was 94 % of control; the T/C (dose: 12.5 mg/kg/injection, schedule: Q01DX009 (ip), vehicle: carboxymethylcellulose (CMC)) is 107 % of control. Also, the T/C is 104 % of control (dose: 20.0 mg/kg/injection, schedule: Q01DX001 (ip), vehicle: saline); 107 % of control (dose: 25.0 mg/kg/injection, schedule: Q01DX009 (ip), vehicle: carboxymethylcellulose (CMC)); 106 % of control (dose: 40.0 mg/kg/injection, schedule: Q01DX001 (ip), vehicle: saline).
For the compound `NC(=O)C1=CN(Cc2ccc(F)cc2)c2ccccc2C1`, the T/C was 107 % of control (dose: 100.0 mg/kg/injection, schedule: Q04DX003 (ip), vehicle: other); 94 % of control (dose: 200.0 mg/kg/injection, schedule: Q04DX003 (ip), vehicle: other); 102 % of control (dose: 400.0 mg/kg/injection, schedule: Q04DX003 (ip), vehicle: other).
Consider `COc1ccc(Cl)cc1NC(=O)Nc1ccc(SC)cc1`, for which the T/C under setting [7] is 98 % of control, the T/C under setting [8] was 94 % of control and the T/C under setting [9] is 96 % of control.
As to `CC(C)(C)NC(=O)C1C2C=CC(C2)C1C(=O)NC(C)(C)C` (stereo unspecified), the T/C by setting is: (dose: 100.0 mg/kg/injection, schedule: Q04DX003 (ip), vehicle: saline with Tween-80) 96 % of control; (dose: 200.0 mg/kg/injection, schedule: Q04DX003 (ip), vehicle: saline with Tween-80) 91 % of control; (dose: 400.0 mg/kg/injection, schedule: Q04DX003 (ip), vehicle: saline with Tween-80) 91 % of control.
In the case of `CN(C)/C=N\c1ncnc2c1ccn2C1OC(CO)C(O)C1O` (stereo unspecified), the T/C (dose: 1.56 mg/kg/injection, schedule: Q01DX005 (ip), vehicle: saline) was 104 % of control; the T/C (dose: 1.56 mg/kg/injection, schedule: Q01DX009 (ip), vehicle: saline) is 109 % of control; the T/C (dose: 3.12 mg/kg/injection, schedule: Q01DX005 (ip), vehicle: saline) was 116 % of control; the T/C (dose: 3.12 mg/kg/injection, schedule: Q01DX009 (ip), vehicle: saline) is 114 % of control; the T/C (dose: 6.25 mg/kg/injection, schedule: Q01DX005 (ip), vehicle: saline) was 93 % of control; the T/C (dose: 6.25 mg/kg/injection, schedule: Q01DX009 (ip), vehicle: saline) is 88 % of control.
For the compound `COc1ccc(/C=N/N=C(\N)N[N+](=O)[O-])cc1OC`, the T/C reads like this: under setting [10], 102 % of control; (dose: 100.0 mg/kg/injection, schedule: Q04DX003 (ip), vehicle: saline sonified) 92 % of control; under setting [11], 98 % of control; (dose: 200.0 mg/kg/injection, schedule: Q04DX003 (ip), vehicle: saline sonified) 97 % of control; under setting [12], 97 % of control; (dose: 400.0 mg/kg/injection, schedule: Q04DX003 (ip), vehicle: saline sonified) 91 % of control.
With `COc1ccc(N=Nc2ccccc2)cc1`, the T/C is 95 % of control under setting [1], 94 % of control under setting [2] and 94 % of control under setting [3].
